Data as given in US20230219965A1 (KSQ Therapeutics, Inc., priority 2020, published 2023).
Where two headings read alike, the source gives them in different places.

Tests used:
[1] = ADME solubility determination in PBS at pH 2.0 and pH 7.4; format: physicochemical; conditions: phosphate buffered saline, 25 °C, thermodynamic from solid
Outline: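 Dried 10 mM DMSO stock residues taken up in PBS pH 7.4 or pH 2.0, shaken 24 h at 25° C. After centrifugation, supernatant quantified by LC-MS/MS against a standard of known concentration, with a dilution factor applied.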

[2] = Liver microsomal metabolic stability, human liver microsomes (HLM); conditions: human, liver microsomes
[3] = Liver microsomal metabolic stability, rat liver microsomes (RLM); conditions: rat, liver microsomes, t1/2 (min) in RLM, 1 μM compound, 1 mg/mL microsomes, NADPH
Method: Samples were prepared by adding 222.5 μL of a master solution (100 mM phosphate buffer and 1 mg/mL liver microsomes (HLM or RLM)) and 25 μL of a 10 mM NADPH solution to incubation plates, which were then warmed for 10 min. Each compound was separately dissolved in DMSO to prepare 10 mM stock solutions, which were then diluted to 100 μM with acetonitrile. A reaction was started by adding 2.5 μL of the 100 μM solution of each compound to separate incubation plates such that the final concentration of for each compound in each plate was 1 μM.
25 μL aliquots of each sample were taken at 0.5, 5, 10, 15, 20 and 30 minutes, and the reaction was stopped by adding 5 volumes of cold acetonitrile with IS (100 nM alprazolam, 200 nM caffeine and 100 nM tolbutamide). The samples were then centrifuged at 3,220 G for 30 minutes, and 100 μL of the supernatant fluid was mixed with 100 μL of ultra-pure H2O.
The samples were then analyzed by LC-MS/MS. Peak areas were determined from extracted ion chromatograms. Slope values (k) were determined by linear regression of the natural logarithm of the remaining percentage of the compound vs. incubation time curve. The in vitro half-life (in vitro t1/2) was determined from the slope value using the following equation:

[4] = target: USP1/UAF1 enzyme (Homo sapiens, UniProt O94782); test: USP1/UAF1 deubiquitination assay (ubiquitin-rhodamine 110 substrate); format: biochemical; conditions: read-out: USP1 IC50 (Ub-Rho)
Chain of USP1/UAF1 enzyme (O94782 whole entry): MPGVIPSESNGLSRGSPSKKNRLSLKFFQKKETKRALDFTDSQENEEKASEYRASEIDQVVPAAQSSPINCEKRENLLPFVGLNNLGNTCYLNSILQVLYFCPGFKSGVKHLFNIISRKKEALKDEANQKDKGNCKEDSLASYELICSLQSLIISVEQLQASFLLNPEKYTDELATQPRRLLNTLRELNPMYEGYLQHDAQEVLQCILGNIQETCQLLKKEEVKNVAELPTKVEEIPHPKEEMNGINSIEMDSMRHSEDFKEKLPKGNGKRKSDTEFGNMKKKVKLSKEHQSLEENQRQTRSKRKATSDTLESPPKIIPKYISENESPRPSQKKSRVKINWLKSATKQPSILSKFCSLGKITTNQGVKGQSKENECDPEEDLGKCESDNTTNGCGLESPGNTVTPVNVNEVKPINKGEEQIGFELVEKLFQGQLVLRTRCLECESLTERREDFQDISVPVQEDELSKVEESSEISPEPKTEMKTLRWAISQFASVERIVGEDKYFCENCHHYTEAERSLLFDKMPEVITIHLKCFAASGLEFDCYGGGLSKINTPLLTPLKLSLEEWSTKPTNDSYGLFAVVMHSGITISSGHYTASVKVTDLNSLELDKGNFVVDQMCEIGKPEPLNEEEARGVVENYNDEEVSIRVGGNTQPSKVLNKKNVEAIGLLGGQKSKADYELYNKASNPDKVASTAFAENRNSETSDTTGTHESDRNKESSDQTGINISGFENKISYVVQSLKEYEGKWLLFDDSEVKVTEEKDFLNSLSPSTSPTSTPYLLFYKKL
Chain of USP1/UAF1 enzyme (Q8TAF3 whole entry partner): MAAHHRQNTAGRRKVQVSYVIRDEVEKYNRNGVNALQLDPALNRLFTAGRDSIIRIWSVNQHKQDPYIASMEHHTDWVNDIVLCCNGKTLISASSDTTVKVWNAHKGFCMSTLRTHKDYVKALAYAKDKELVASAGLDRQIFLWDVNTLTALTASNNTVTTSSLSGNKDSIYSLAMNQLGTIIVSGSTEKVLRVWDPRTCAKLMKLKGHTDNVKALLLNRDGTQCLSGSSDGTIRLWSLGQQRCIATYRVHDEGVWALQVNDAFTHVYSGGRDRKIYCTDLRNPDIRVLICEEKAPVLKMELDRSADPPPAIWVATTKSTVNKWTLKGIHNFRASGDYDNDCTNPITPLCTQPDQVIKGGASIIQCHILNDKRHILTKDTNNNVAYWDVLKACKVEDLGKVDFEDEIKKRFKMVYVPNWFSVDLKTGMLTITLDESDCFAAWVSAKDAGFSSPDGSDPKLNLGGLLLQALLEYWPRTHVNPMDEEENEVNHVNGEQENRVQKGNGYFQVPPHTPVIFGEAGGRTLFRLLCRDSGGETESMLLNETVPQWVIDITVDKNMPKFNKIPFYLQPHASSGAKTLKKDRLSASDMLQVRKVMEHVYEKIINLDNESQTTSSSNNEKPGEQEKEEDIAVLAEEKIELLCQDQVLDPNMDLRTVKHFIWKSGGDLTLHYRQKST
Outline: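 0.05 nM USP1/UAF1 was preincubated 10 min with compounds (dose response from 10 μM) in 50 mM Tris-HCl pH 7.8, 0.5 mM EDTA, 0.01% BSA, 1 mM DTT, 0.01% Tween-20. 150 nM ubiquitin-rhodamine 110 started the reaction, read kinetically 30 min at Ex480/Em540; IC50 by four-parameter fit versus no-enzyme and DMSO controls.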

[5] = test system: Ub-PCNA levels in the nucleus of ES2 cells (USP1 activity); test: ES2 Ub-PCNA immunofluorescence (IF) assay; format: cell-based; conditions: Homo sapiens, ES-2; ES2 cells, 3 hours, Ub-PCNA immunofluorescence; read-out: USP1 IC50 (Ub-PCNA)
Outline: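 Cells plated overnight, then compound-treated for 3 h at 37° C (0.3% DMSO final), methanol-fixed and stained with anti-Ub-PCNA plus DAPI. Per-nucleus Ub-PCNA intensity imaged; cells above the 95% cutoff of untreated wells counted as positive, and percent positive cells used to derive AC50.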

[6] = pH 2, aqueous buffer, PBS pH 2.0, 25° C., read-out: Solubility at pH 2.0
[7] = pH 7.4, aqueous buffer, PBS pH 7.4, 25° C., read-out: Solubility at pH 7.4

SMILES | solubility at 24 h [1, 6] [µM] | solubility at 24 h [1, 7] [µM] | half-life at 1 μM [2] [min] | half-life at 1 μM [3] [min] | IC50 [4] [nM] | IC50 [5] [nM]
CCn1cc(C(F)(F)F)nc1-c1ccc([C@@H](C)n2c(=O)ccn3nc(-c4c(OC)ncnc4C4CC4)cc23)cc1F [Example 333, (R)-2-(4-cyclopropyl-6-methoxypyrimidin-5-yl)-4-(1-(4-(1-ethyl-4-(trifluoromethyl)-1H-imidazol-2-yl)-3-fluorophenyl)ethyl)pyrazolo[1,5-α]pyrimidin-5(4H)-one] | < 10 | < 10 | > 25 | > 25 | < 100 | < 100
CCn1cc(C(F)(F)F)nc1-c1ccc([C@@H](C)n2c(=O)ccn3nc(-c4c(OC)ncnc4C4CC4)cc23)cc1 [Example 335, (R)-2-(4-cyclopropyl-6-methoxypyrimidin-5-yl)-4-(1-(4-(1-ethyl-4-(trifluoromethyl)-1H-imidazol-2-yl)phenyl)ethyl)pyrazolo[1,5-a]pyrimidin-5(4H)-one] | ≥ 10 | < 10 | > 25 | > 25 | < 100 | < 100
CCn1cc(C(F)(F)F)nc1-c1ccc([C@H](C)n2c(=O)ccn3nc(-c4c(OC)ncnc4C4CC4)cc23)cc1 [Example 336, (S)-2-(4-cyclopropyl-6-methoxypyrimidin-5-yl)-4-(1-(4-(1-ethyl-4-(trifluoromethyl)-1H-imidazol-2-yl)phenyl)ethyl)pyrazolo[1,5-a]pyrimidin-5(4H)-one] | ≥ 10 | < 10 | < 25 | > 25 | < 100 | < 100
CCn1cc(C(F)(F)F)nc1-c1ccc(Cn2c(=O)ccn3nc(-c4c(OC)ncnc4C4CC4)nc23)cc1 [Example 337, 2-(4-cyclopropyl-6-methoxypyrimidin-5-yl)-4-(4-(1-ethyl-4-(trifluoromethyl)-1H-imidazol-2-yl)benzyl)-[1,2,4]triazolo[1,5-α]pyrimidin-5(4H)-one] | ≥ 10 | < 10 | > 25 | > 25 | < 100 | < 100
CCn1cc(C(F)(F)F)nc1-c1ccc([C@@H](C)n2c(=O)ccn3nc(-c4c(OC)ncnc4C4CC4)nc23)cc1 [Example 338, (R)-2-(4-cyclopropyl-6-methoxypyrimidin-5-yl)-4-(1-(4-(1-ethyl-4-(trifluoromethyl)-1H-imidazol-2-yl)phenyl)ethyl)-[1,2,4]triazolo[1,5-a]pyrimidin-5(4H)-one] | ≥ 10 | < 10 | > 25 | < 25 | < 100 | < 100
CCn1cc(C(F)(F)F)nc1-c1ccc([C@H](C)n2c(=O)ccn3nc(-c4c(OC)ncnc4C4CC4)nc23)cc1 [Example 339, (S)-2-(4-cyclopropyl-6-methoxypyrimidin-5-yl)-4-(1-(4-(1-ethyl-4-(trifluoromethyl)-1H-imidazol-2-yl)phenyl)ethyl)-[1,2,4]triazolo[1,5-a]pyrimidin-5(4H)-one] | ≥ 10 | < 10 | < 25 | > 25 | < 100 | < 100
CCn1cc(C(F)(F)F)nc1-c1ccc(C(C)n2c(=O)ccn3nc(-c4c(OC)ncnc4C4CC4)nc23)cc1 (stereo not drawn) [Example 340, 2-(4-cyclopropyl-6-methoxypyrimidin-5-yl)-4-(1-(4-(1-ethyl-4-(trifluoromethyl)-1H-imidazol-2-yl)phenyl)ethyl)-[1,2,4]triazolo[1,5-a]pyrimidin-5(4H)-one] | ≥ 10 | ≥ 10 | > 25 | > 25 | < 100 | < 100
CCn1cc(C(F)(F)F)nc1-c1ccc(Cn2c(=O)ccn3nc(-c4c(Cl)cnn4C(C)C)nc23)cc1F [Example 343, 2-(4-chloro-1-isopropyl-1H-pyrazol-5-yl)-4-(4-(1-ethyl-4-(trifluoromethyl)-1H-imidazol-2-yl)-3-fluorobenzyl)-[1,2,4]triazolo[1,5-a]pyrimidin-5(4H)-one] | < 10 | < 10 | > 25 | > 25 | < 100 | < 100
CCn1cc(C(F)(F)F)nc1-c1ccc(Cn2c(=O)ccn3nc(-c4c(OC(F)F)ncnc4C4CC4)nc23)cc1 [Example 345] | < 10 | < 10 | > 25 | > 25 | < 100 | < 100
COc1ncnc(C2CC2)c1-c1nc2n(Cc3ccc(-c4nc(C(F)(F)F)cn4C(C)C)c(F)c3OC)c(=O)ccn2n1 [Example 346, 2-(4-cyclopropyl-6-methoxypyrimidin-5-yl)-4-(3-fluoro-4-(1-isopropyl-4-(trifluoromethyl)-1H-imidazol-2-yl)-2-methoxybenzyl)-[1,2,4]triazolo[1,5-a]pyrimidin-5(4H)-one] | < 10 | < 10 | > 25 | > 25 | < 100 | < 100
CCn1cc(C(F)(F)F)nc1-c1ccc(CN2C(=O)C(C)Cn3nc(-c4c(OC)ncnc4C4CC4)nc32)cc1F (stereo not drawn) [Example 347, 2-(4-cyclopropyl-6-methoxypyrimidin-5-yl)-4-(4-(1-ethyl-4-(trifluoromethyl)-1H-imidazol-2-yl)-3-fluorobenzyl)-6-methyl-6,7-dihydro-[1,2,4]triazolo[1,5-α]pyrimidin-5(4H)-one] | ≥ 10 | ≥ 10 | > 25 | > 25 | < 100 | < 100
CCn1cc(C(F)(F)F)nc1-c1ccc(CN2C(=O)C(C)Cn3nc(-c4c(Cl)cnn4C(C)C)nc32)cc1F (stereo not drawn) [Example 350, 2-(4-chloro-1-isopropyl-1H-pyrazol-5-yl)-4-(4-(1-ethyl-4-(trifluoromethyl)-1H-imidazol-2-yl)-3-fluorobenzyl)-6-methyl-6,7-dihydro-[1,2,4]triazolo[1,5-a]pyrimidin-5(4H)-one] | < 10 | < 10 | > 25 | > 25 | < 100 | < 100
CCn1cc(C(F)(F)F)nc1-c1ccc(CN2C(=O)C(C)Cn3nc(-c4c(OC(F)F)ncnc4C4CC4)nc32)cc1F (stereo not drawn) [Example 351, 2-(4-cyclopropyl-6-(difluoromethoxy)pyrimidin-5-yl)-4-(4-(1-ethyl-4-(trifluoromethyl)-1H-imidazol-2-yl)-3-fluorobenzyl)-6-methyl-6,7-dihydro-[1,2,4]triazolo[1,5-a]pyrimidin-5(4H)-one] | < 10 | < 10 | > 25 | > 25 | < 100 | < 100
CCn1cc(C(F)(F)F)nc1-c1ccc(NC2c3cc(-c4c(Cl)cnn4C(C)C)nn3CCC2(C)C)cc1 (stereo not drawn) [Example 352, 2-(4-chloro-1-isopropyl-1H-pyrazol-5-yl)-N-(4-(1-ethyl-4-(trifluoromethyl)-1H-imidazol-2-yl)phenyl)-5,5-dimethyl-4,5,6,7-tetrahydropyrazolo[1,5-α]pyridin-4-amine] | < 10 | < 10 | > 25 | < 25 | < 100 | < 100
CCn1cc(C(F)(F)F)nc1-c1ccc(CN2CC(N)Cn3nc(-c4c(Cl)cnn4C(C)C)cc32)cc1F (stereo not drawn) [Example 353, 2-(4-chloro-1-isopropyl-1H-pyrazol-5-yl)-4-(4-(1-ethyl-4-(trifluoromethyl)-1H-imidazol-2-yl)-3-fluorobenzyl)-4,5,6,7-tetrahydropyrazolo[1,5-α]pyrimidin-6-amine] | ≥ 10 | < 10 | < 25 | < 25 | < 100 | < 100
CCn1cc(C(F)(F)F)nc1-c1ccc(NC2CCCc3nn(-c4ccccc4C(C)C)cc32)cc1F (stereo not drawn) [Example 355, N-(4-(1-ethyl-4-(trifluoromethyl)-1H-imidazol-2-yl)-3-fluorophenyl)-2-(2-isopropylphenyl)-4,5,6,7-tetrahydro-2H-indazol-4-amine] | < 10 | < 10 | < 25 | < 25 | < 100 | 100 to 500
CCn1cc(C(F)(F)F)nc1-c1ccc(NC2CCCCn3nc(-c4c(Cl)cnn4C(C)C)cc32)cc1 (stereo not drawn) [Example 357, 2-(4-chloro-1-isopropyl-1H-pyrazol-5-yl)-N-(4-(1-ethyl-4-(trifluoromethyl)-1H-imidazol-2-yl)phenyl)-5,6,7,8-tetrahydro-4H-pyrazolo[1,5-α]azepin-4-amine] | < 10 | < 10 | < 25 | < 25 | < 100 | < 100
